Measured values: patent US20080269121A1, “Methods and Compositions Involving A1c Subunit of L-Type Calcium Channels in Smooth Muscle Cells” (The Board of Regents of the University of Texas System, priority 2005, published 2008)

What was measured:
[1] = system: TNBS-induced inflammation; type: in vivo, rat; conditions: intact rat model, treatment through osmotic pumps, expected
Protocol: Muscle bath experiments. Pure circular muscle strips (2 mm×10 mm) are prepared from resected human colon segments. The strips are mounted in 5 ml baths filled with carbonated Krebs solution (in mM: 118 NaCl, 4.7 KCl, 2.5 CaCl2, 1 NaH2PO4, 1-2 MgCl2, 11 D-glucose, and 25 NaHCO3) at 37° C. (Siebenlist et al., 1994; Barnes and Karin, 1997). The muscle strips are equilibrated for 1 h at 1 g tension and then stretched until maximal response is obtained to 10^−4 m ACh. The bathing solution is replaced every 15 min. Contractions are measured by force transducers and analyzed by DATAQ (Akron, Ohio) software.
Vertebrate Animals. Sprague-Dawley rats were used. For tissue harvesting, the rats were anesthetized with 5% isoflurame in 100% oxygen for 5 to 7 minutes followed by i.p. injection of 50 mg/kg ketamine.
Osmotic pumps were implanted under anesthesia as discussed above. Lateral surface of left back were shaven and cleaned with betadine. A 2 cm incision was made in the skin and subcutaneous facia and muscle separated. The micro-osmotic pump were implanted intramuscularly and the incision was closed.
Colonic inflammation was induced by intraluminal injection of 30 mg/kg or 130-mg/kg trinitrobenzene sulfonic acid (TNBS) under anesthesia, as described above.

p65 subunit = assay: Nuclear abundance and binding of NF-κB p65 in HCCSMC; type: cell-based, human
Protocol: Cytoplasmic and nuclear protein, and RNA extraction: Cytoplasmic and nuclear proteins were prepared as described earlier by Shi et al. Briefly, the cells were washed twice with phosphate-buffered saline solution and then with buffer A (in mM: 10 HEPES, 1.5 MgCl2, 10 KCl, 0.5 dithiothreitol, 0.5 phenylmethylsulfrenyl fluoride [PMSF]; 10 ng/mL leupeptin, and 10 ng/mL aprotinin). The cells were resuspended in 25 μL of buffer A containing 0.25% NP-40 and incubated at 4° C. for 10 minutes. After centrifugation at 12,000 g for 10 minutes, the supernatant was collected as cytoplasmic extract. The nuclear pellet was resuspended in 20 μL of buffer C (in mM: 20 HEPES, […], 1.5 MgCl2, 0.2 ethylenediaimetetraacetic acid (EDTA), 0.5 DTT, 0.5 PMSF; 24% glycerol, 10 ng/mL leupeptin, and 10 ng/mL aprotinin) and incubated on ice with frequent vortexing for 15 minutes. The samples were centrifuged at 14,000 g for 10 minutes, and the supernatant (nuclear extract) was transferred to a fresh tube with 5 volumes of buffer D (in mM: 20 HEPES, 0.2 EDTA, 50 KCl, 0.5 DTT, 0.5 PMSF; 20% glycerol, 10 ng/mL leupeptin, and 10 ng/mL aprotinin). The protein concentration was determined by using the Bio-Rad assay kit (Bio-Rad Laboratories, Hercules, Calif.).
Electrophoretic mobility shift assay. […]

vasoactive intestinal polypeptide [VIP]
effect on suppression of contractility due to TNBS-induced inflammation [1]: partially inhibit the suppression of contractility | abundance of p65 in the nucleus, VIP and TNFα versus TNFα alone (p65 subunit): did not seem to be different
